The values that follow come from ChEMBL document CHEMBL1154239, “Captopril and 6-mercaptopurine: whose SH possesses higher antioxidant ability?” (Eur J Med Chem, 2009).

Usually IC50 stands for the concentration that gives 50% inhibition. As a reminder, the inhibition is the percentage by which the read-out fell short of the control.

The subject of assay [1] is Radical scavenging activity. The experiment in a line: Antioxidant activity assessed as DPPH radical scavenging activity. The format is functional.
Assay [2] can be described thus: Antioxidant activity assessed as ABTS radical scavenging activity. The format is functional.
Assay [3] is described as follows: Antioxidant activity assessed as galvinoxyl radical scavenging activity. The format is functional.
A short description of assay [4]: Antioxidant activity assessed as protection against hemin-induced erythrocytes hemolysis at 0.6 uM. The format is functional. As to conditions: Erythrocyte.
Assay [5] in a line: Antioxidant activity against […]-induced DNA damage assessed as inhibition time. The format is functional.
Assay [6] in a line: Antioxidant activity against […]-induced hemolysis of erythrocytes assessed as lag time of inhibition. The format is functional, Erythrocyte.
Assay [7] relates to Erythrocyte. The experiment in a line: Antioxidant activity assessed as protection against hemin-induced erythrocytes hemolysis up to 1 uM. The format is functional, cell-based.

Activity calls are given as the source filed them. The rule behind the calls is not given here.

As for `C[C@H](CS)C(=O)N1CCC[C@H]1C(=O)O` [CAPTOPRIL], the IC50 in assay [1] was 43 µM; in assay [2], 6.5 µM; in assay [3], 7.1 µM. Also, the inhibition at 0.6 µM in assay [4] turned out to be 80%. Moreover, the TIME in assay [5] came to 3.38 h. For the same molecule, the Time in assay [6] was 270 min.
For the molecule `Sc1ncnc2nc[nH]c12` [MERCAPTOPURINE ANHYDROUS], the IC50 in assay [1] amounted to 65 µM; in assay [2] it was 4.7 µM; in assay [3], 188 µM. In addition, the outcome in assay [7] was inactive. Further, in assay [5], the TIME came out at 3 h. Also, the Time in assay [6] came out at 406 min.
With `Cc1c(C)c2c(c(C)c1O)CCC(C)(C(=O)O)O2` (stereo not given) [TROLOX], the IC50 in assay [1] worked out at 22.8 µM; in assay [2] it was 11.6 µM.
As to `OC[C@H]1O[C@@H](n2cnc3c(S)ncnc32)[C@H](O)[C@@H]1O` [THIOINOSINE], the IC50 was determined as 180 µM in assay [1], 3.9 µM in assay [2] and 65 µM in assay [3]. Moreover, the outcome in assay [7] was inactive. For the same molecule, in assay [5], the TIME worked out at 3.12 h. Besides, in assay [6], the Time stood at 482 min.
